Values quoted from earlier work as cited in patent US8183280B2, “FAP inhibitors” (Vantia Limited, priority 2005, dated 2012).

Tested on: syngeneic tumours
Conditions: mice, oral administration; Cancer Res., 2004, 64: 5471

For CC(C)[C@H](N)C(=O)N1CCC[C@H]1B(O)O [ValboroPro], the anti-tumour activity is listed as “potent anti-tumour activity in mice”.
